Drawing on patent US12679848B2, “Plasma kallikrein inhibitors” (Merck Sharp & Dohme LLC, priority 2020, dated 2026), this text covers IC50 for 24 compounds.

Molecules are shown by their SMILES.

One experiment has as its target T1, Human plasma kallikrein (Homo sapiens, UniProt P03952).
T1 construct: yields a heavy chain (371 amino acids) and a light chain (248 amino acids); The active site of plasma kallikrein is contained in the light chain; purchased Enzyme Research Laboratories
Briefly: Plasma Kallikrein Assay. In kind it is biochemical. The following applies: purified Human plasma kallikrein 0.5 nM, substrate Acetyl-K-P-R-AFC, HEPES pH 7.4; read-out: PKal IC50. In a few lines:
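Purified human plasma kallikrein at 0.5 nM final with substrate Acetyl-K-P-R-AFC at […], in 50 mM HEPES pH 7.4, 150 mM NaCl, 5 mM CaCl2, 0.1% PEG 8000, at rt or 37° C after enzyme-inhibitor equilibration. IC50 from four-parameter logistic fit of fluorescence rate; Ki via Cheng-Prusoff.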

The target of the next experiment is human factor XIa (Homo sapiens, UniProt P03951). The experiment in a line: Factor XIa Assay. In kind it is biochemical. The following applies: human factor XIa 0.04 nM, substrate GPR-AFC, 30 min pre-incubation, 25° C., pH 7.4; read-out: FXIa IC50.
Sequence of human factor XIa (P03951 388-625 limits assumed): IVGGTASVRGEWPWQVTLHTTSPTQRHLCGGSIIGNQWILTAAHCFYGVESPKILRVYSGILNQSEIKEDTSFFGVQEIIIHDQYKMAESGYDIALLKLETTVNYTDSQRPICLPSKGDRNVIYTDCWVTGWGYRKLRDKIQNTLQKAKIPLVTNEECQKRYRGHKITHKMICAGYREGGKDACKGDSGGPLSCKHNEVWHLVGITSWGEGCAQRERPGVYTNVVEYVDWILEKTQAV
Sequence of human factor XIa (P03951 19-387 partner limits assumed): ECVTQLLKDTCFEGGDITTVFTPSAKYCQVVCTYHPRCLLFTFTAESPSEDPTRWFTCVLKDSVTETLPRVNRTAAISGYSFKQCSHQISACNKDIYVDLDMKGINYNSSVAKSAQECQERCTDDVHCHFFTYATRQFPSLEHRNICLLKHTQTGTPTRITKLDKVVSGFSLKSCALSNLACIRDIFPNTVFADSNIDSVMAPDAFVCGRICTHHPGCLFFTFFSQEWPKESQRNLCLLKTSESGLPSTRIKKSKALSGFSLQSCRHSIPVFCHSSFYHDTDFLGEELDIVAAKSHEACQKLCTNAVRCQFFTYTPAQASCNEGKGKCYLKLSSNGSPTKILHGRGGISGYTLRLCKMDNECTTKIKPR

T1 sequence (P03952 391-638 limits assumed): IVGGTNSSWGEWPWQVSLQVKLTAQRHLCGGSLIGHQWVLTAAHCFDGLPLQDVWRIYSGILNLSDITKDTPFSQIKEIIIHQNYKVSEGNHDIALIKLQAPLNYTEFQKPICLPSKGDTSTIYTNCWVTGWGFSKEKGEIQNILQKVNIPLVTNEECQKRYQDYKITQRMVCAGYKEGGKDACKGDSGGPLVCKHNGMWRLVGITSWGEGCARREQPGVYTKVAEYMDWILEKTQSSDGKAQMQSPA
T1 sequence (P03952 20-390 partner limits assumed): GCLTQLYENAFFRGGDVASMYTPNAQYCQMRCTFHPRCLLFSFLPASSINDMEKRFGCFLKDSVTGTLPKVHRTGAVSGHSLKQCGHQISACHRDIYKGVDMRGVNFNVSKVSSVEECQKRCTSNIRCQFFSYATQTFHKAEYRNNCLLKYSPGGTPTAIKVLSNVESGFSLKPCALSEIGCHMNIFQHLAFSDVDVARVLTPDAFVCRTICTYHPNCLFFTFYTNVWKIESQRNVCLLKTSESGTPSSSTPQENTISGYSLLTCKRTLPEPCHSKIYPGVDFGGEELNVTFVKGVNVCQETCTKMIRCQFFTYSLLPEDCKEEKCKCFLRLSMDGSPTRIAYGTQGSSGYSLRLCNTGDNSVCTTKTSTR

On to `Nc1c(C(=O)N2CCC[C@@]3(C2)OC(=O)Nc2ccc(Cl)c(F)c23)cnn1Cc1ccc(F)c(F)c1` [Example 33, (R)-1'-(5-Amino-1-(3,4-difluorobenzy1)-1H-pyrazole-4-carbonyl)-6-chloro-5-fluorospiro[benzo[d][1,3]oxazine-4,3'-piperidin]-2(1H)-one], for which the IC50 was found to be 1 nM on Human plasma kallikrein and 438 nM at human factor XIa.

`CC(C)n1ncc(C(=O)N2CCC[C@@]3(C2)OC(=O)Nc2ccc(Cl)c(F)c23)c1N` [Example 34, (R)-1'-(5-Amino-1-isopropyl-1H-pyrazole-4-carbonyl)-6-chloro-5-fluorospiro[benzo[d][1,3]oxazine-4,3'-piperidin]-2(1H)-one]: the IC50 at Human plasma kallikrein turned out to be 8.9 nM; at human factor XIa, 1200 nM.

Regarding `Nc1c(C(=O)N2CCC[C@@]3(C2)OC(=O)Nc2ccc(Cl)c(F)c23)cnn1C1CCCCC1` [Example 35, (R)-1'-(5-Amino-1-cyclohexyl-1H-pyrazole-4-carbonyl)-6-chloro-5-fluorospiro[benzo[d][1,3]oxazine-4,3'-piperidin]-2(1H)-one], the values for the IC50 at Human plasma kallikrein and at human factor XIa were 15.7 nM and 1080 nM, respectively.

As for `Nc1c(C(=O)N2CCC[C@@]3(C2)OC(=O)Nc2ccc(Cl)c(F)c23)cnn1CC1CCCCC1` [Example 36, (R)-1'-(5-Amino-1-(cyclohexylmethyl)-1H-pyrazole-4-carbonyl)-6-chloro-5-fluorospiro[benzo[d][1,3]oxazine-4,3'-piperidin]-2(1H)-one], the figures for the IC50 at Human plasma kallikrein and at human factor XIa were 2 nM and 140 nM, respectively.

Take `Nc1c(C(=O)N2CCC[C@@]3(C2)OC(=O)Nc2ccc(Cl)c(F)c23)cnn1CCOc1ccc(Cl)cc1` [Example 37, (R)-1'-(5-Amino-1-(2-(4-chlorophenoxy)ethyl)-1H-pyrazole-4-carbonyl)-6-chloro-5-fluorospiro[benzo[d][1,3]oxazine-4,3'-piperidin]-2(1H)-one]: the figures for the IC50 at Human plasma kallikrein and on human factor XIa were 10.5 nM and 4600 nM, respectively.

`Nc1c(C(=O)N2CCC[C@@]3(C2)OC(=O)Nc2ccc(Cl)c(F)c23)cnn1C1Cc2ccccc2C1` [Example 38, (R)-1'-(5-Amino-1-(2,3-dihydro-1H-inden-2-yl)-1H-pyrazole-4-carbonyl)-6-chloro-5-fluorospiro[benzo[d][1,3]oxazine-4,3'-piperidin]-2(1H)-one]: the IC50 at Human plasma kallikrein came to 2.4 nM; on human factor XIa, 449 nM.

`COc1cccc(Cn2ncc(C(=O)N3CCC[C@@]4(C3)OC(=O)Nc3ccc(Cl)c(F)c34)c2N)c1` [Example 39, (R)-1'-(5-Amino-1-(3-methoxybenzyl)-1H-pyrazole-4-carbonyl)-6-chloro-5-fluorospiro[benzo[d][1,3]oxazine-4,3'-piperidin]-2(1H)-one]: the IC50 is 1.2 nM at Human plasma kallikrein and 293 nM at human factor XIa.

Take `COc1ccccc1Cn1ncc(C(=O)N2CCC[C@@]3(C2)OC(=O)Nc2ccc(Cl)c(F)c23)c1N` [Example 40, (R)-1'-(5-Amino-1-(2-methoxybenzyl)-1H-pyrazole-4-carbonyl)-6-chloro-5-fluorospiro[benzo[d][1,3]oxazine-4,3'-piperidin]-2(1H)-one]: the 50% inhibitory concentration (IC50) on Human plasma kallikrein amounted to 2.3 nM; on human factor XIa, 249 nM.

With `CN(C)c1ccccc1Cn1ncc(C(=O)N2CCC[C@@]3(C2)OC(=O)Nc2ccc(Cl)c(F)c23)c1N` [Example 41, (R)-1'-(5-Amino-1-(2-(dimethylamino)benzyl)-1H-pyrazole-4-carbonyl)-6-chloro-5-fluorospiro[benzo[d][1,3]oxazine-4,3'-piperidin]-2(1H)-one], the figures for the IC50 on Human plasma kallikrein and at human factor XIa were 11.4 nM and 746 nM, respectively.

As to `Nc1c(C(=O)N2CCC[C@@]3(C2)OC(=O)Nc2ccc(Cl)c(F)c23)cnn1Cc1ccc(Cl)cc1` [Example 42, (R)-1'-(5-Amino-1-(4-chlorobenzyl)-1H-pyrazole-4-carbonyl)-6-chloro-5-fluorospiro[benzo[d][1,3]oxazine-4,3'-piperidin]-2(1H)-one], the IC50 at Human plasma kallikrein was found to be 1.4 nM; on human factor XIa, 504 nM.

As for `Nc1c(C(=O)N2CCC[C@@]3(C2)OC(=O)Nc2ccc(Cl)c(F)c23)cnn1Cc1ccc(C(F)(F)F)nc1` [Example 43, (R)-1'-(5-Amino-1-((6-(trifluoromethyl)pyridin-3-yl)methyl)-1H-pyrazole-4-carbonyl)-6-chloro-5-fluorospiro[benzo[d][1,3]oxazine-4,3'-piperidin]-2(1H)-one], the IC50 was 8 nM on Human plasma kallikrein and 905 nM on human factor XIa.

`Nc1c(C(=O)N2CCC[C@@]3(C2)OC(=O)Nc2ccc(Cl)c(F)c23)cnn1Cc1ccccc1Cl` [Example 44, (R)-1'-(5-Amino-1-(2-chlorobenzyl)-1H-pyrazole-4-carbonyl)-6-chloro-5-fluorospiro[benzo[d][1,3]oxazine-4,3'-piperidin]-2(1H)-one]: the IC50 was 1.1 nM at Human plasma kallikrein and 251 nM on human factor XIa.

With `Cc1cccc(Cn2ncc(C(=O)N3CCC[C@@]4(C3)OC(=O)Nc3ccc(Cl)c(F)c34)c2N)c1` [Example 45, (R)-1'-(5-Amino-1-(3-methylbenzyl)-1H-pyrazole-4-carbonyl)-6-chloro-5-fluorospiro[benzo[d][1,3]oxazine-4,3'-piperidin]-2(1H)-one], the results for the half-inhibitory concentration (IC50) on Human plasma kallikrein and on human factor XIa were 0.7 nM and 156 nM, respectively.

Consider `Nc1c(C(=O)N2CCC[C@@]3(C2)OC(=O)Nc2ccc(Cl)c(F)c23)cnn1C1(c2ccc(F)cc2)CCC1` [Example 46, (R)-1'-(5-Amino-1-(1-(4-fluorophenyl)cyclobutyl)-1H-pyrazole-4-carbonyl)-6-chloro-5-fluorospiro[benzo[d][1,3]oxazine-4,3'-piperidin]-2(1H)-one], for which the IC50 came out at 1.2 nM at Human plasma kallikrein and 167 nM at human factor XIa.

For the compound `Nc1c(C(=O)N2CCC[C@@]3(C2)OC(=O)Nc2ccc(Cl)c(F)c23)cnn1C1(C(F)(F)F)CCC1` [Example 47, (R)-1'-(5-Amino-1-(1-(trifluoromethyl)cyclobutyl)-1H-pyrazole-4-carbonyl)-6-chloro-5-fluorospiro[benzo[d][1,3]oxazine-4,3'-piperidin]-2(1H)-one], the IC50 at Human plasma kallikrein is 6.3 nM; at human factor XIa, 731 nM.

`Nc1c(C(=O)N2CCC[C@@]3(C2)OC(=O)Nc2ccc(Cl)c(F)c23)cnn1CC(F)(F)C(F)(F)F` [Example 48, (R)-1'-(5-Amino-1-(2,2,3,3,3-pentafluoropropyl)-1H-pyrazole-4-carbonyl)-6-chloro-5-fluorospiro[benzo[d][1,3]oxazine-4,3'-piperidin]-2(1H)-one]: the IC50 was found to be 13.1 nM at Human plasma kallikrein and 516 nM at human factor XIa.

On to `CC(C)(n1ncc(C(=O)N2CCC[C@@]3(C2)OC(=O)Nc2ccc(Cl)c(F)c23)c1N)C(F)(F)F` [Example 49, (R)-1'-(5-Amino-1-(1,1,1-trifluoro-2-methylpropan-2-y1)-1H-pyrazole-4-carbonyl)-6-chloro-5-fluorospiro[benzo[d][1,3]oxazine-4,3'-piperidin]-2(1H)-one], for which the IC50 at Human plasma kallikrein amounted to 16.9 nM; at human factor XIa, 2930 nM.

Regarding `Nc1c(C(=O)N2CCC[C@@]3(C2)OC(=O)Nc2ccc(Cl)c(F)c23)cnn1C1(C(F)(F)F)CC1` [Example 50, (R)-1'-(5-Amino-1-(1-(trifluoromethyl)cyclopropyl)-1H-pyrazole-4-carbonyl)-6-chloro-5-fluorospiro[benzo[d][1,3]oxazine-4,3'-piperidin]-2(1H)-one], the figures for the 50% inhibitory concentration (IC50) on Human plasma kallikrein and at human factor XIa were 8.3 nM and 684 nM, respectively.

With `Nc1c(C(=O)N2CCC[C@@]3(C2)OC(=O)Nc2ccc(Cl)c(F)c23)cnn1Cc1cncnc1` [Example 51, (R)-1'-(5-Amino-1-(pyrimidin-5-ylmethyl)-1H-pyrazole-4-carbonyl)-6-chloro-5-fluorospiro[benzo[d][1,3]oxazine-4,3'-piperidin]-2(1H)-one], the IC50 on Human plasma kallikrein was found to be 9.8 nM; at human factor XIa, 996 nM.

Take `Nc1c(C(=O)N2CCC[C@@]3(C2)OC(=O)Nc2ccc(Cl)c(F)c23)cnn1C1(C(F)(F)F)CC(F)(F)C1` [Example 52, (R)-1'-(5-Amino-1-(3,3-difluoro-1-(trifluoromethyl)cyclobutyl)-1H-pyrazole-4-carbonyl)-6-chloro-5-fluorospiro[benzo[d][1,3]oxazine-4,3'-piperidin]-2(1H)-one]: the IC50 is 9.1 nM on Human plasma kallikrein and 978 nM at human factor XIa.

In the case of `Nc1c(C(=O)N2CCC[C@@]3(C2)OC(=O)Nc2ccc(Cl)c(F)c23)cnn1C1(C(F)(F)F)CCOCC1` [Example 53, (R)-1'-(5-Amino-1-(4-(trifluoromethyl)tetrahydro-2H-pyran-4-y1)-1H-pyrazole-4-carbonyl)-6-chloro-5-fluorospiro[benzo[d][1,3]oxazine-4,3'-piperidin]-2(1H)-one], the results for the IC50 at Human plasma kallikrein and on human factor XIa were 8.7 nM and 1110 nM, respectively.

As to `Nc1c(C(=O)N2CCC[C@@]3(C2)OC(=O)Nc2ccc(Cl)c(F)c23)cnn1Cc1cnccn1` [Example 54, (R)-1'-(5-Amino-1-(pyrazin-2-ylmethyl)-1H-pyrazole-4-carbonyl)-6-chloro-5-fluorospiro[benzo[d][1,3]oxazine-4,3'-piperidin]-2(1H)-one], the IC50 amounted to 3.4 nM on Human plasma kallikrein and 601 nM on human factor XIa.

With `Nc1c(C(=O)N2CCC[C@@]3(C2)OC(=O)Nc2ccc(Cl)c(F)c23)cnn1Cc1cccnc1` [Example 55, (R)-1'-(5-Amino-1-(pyridin-3-ylmethyl)-1H-pyrazole-4-carbonyl)-6-chloro-5-fluorospiro[benzo[d][1,3]oxazine-4,3'-piperidin]-2(1H)-one], the IC50 on Human plasma kallikrein was 2 nM; at human factor XIa it was 418 nM.

Take `COc1ccc(-n2ncc(C(=O)N3CCC[C@@]4(C3)OC(=O)Nc3ccc(Cl)c(F)c34)c2N)cc1` [Example 58, (R)-1'-(5-Amino-1-(4-methoxyphenyl)-1H-pyrazole-4-carbonyl)-6-chloro-5-fluorospiro[benzo[d][1,3]oxazine-4,3'-piperidin]-2(1H)-one]: the half-inhibitory concentration (IC50) on Human plasma kallikrein turned out to be 39.7 nM; on human factor XIa, 3130 nM.

A word on the IC50: it is the midpoint of a concentration-inhibition curve.
